In brackets after ≈: the same amount, converted by molar mass. Activity calls are given as the source filed them. The calls are words filed in the database; no cut-off is given here.
Assays:
[1] = system: Staphylococcus aureus; assay: Antimicrobial activity against Staphylococcus aureus ATCC 29213 after 24 hrs; assay type: functional; settings: ATCC 29213, 24 h
[2] = system: Escherichia coli; assay: Antimicrobial activity against Escherichia coli ATCC 25922 upto 100 ug/ml after 24 hrs; assay type: functional, organism-based

MIC [1] [µg/mL]	Structure (SMILES)	Activity [2]
> 50	CCCCc1cn(C[C@H]2CN(c3ccc4c(c3)Oc3ccccc3O4)C(=O)O2)nn1	inactive
> 50	O=C(O)c1cn(C[C@H]2CN(c3ccc4c(c3)Oc3ccccc3O4)C(=O)O2)nn1	inactive
2 (≈ 5.88 µM)	CC(=O)NC[C@H]1CN(c2ccc3c(c2)Oc2ccccc2O3)C(=O)O1	
> 50	O=C1O[C@@H](Cn2ccnn2)CN1c1ccc2c(c1)Oc1ccccc1O2	inactive

Source: ChEMBL document CHEMBL1142290, “Synthesis of novel oxazolidinone antimicrobial agents” (2008)
